This passage reports IC50 results from the Kinase Knowledgebase extract (Sharma et al. 2016).

A value given as a limit tells only on which side of the number the result lay.

In one assay the target is PIK3CA (human) (UniProt P42336). As to the kind of experiment: Enzyme Assay.
The target of another assay is PIK3CB (Human) (UniProt P42338). As to the kind of experiment: Enzyme Assay.
The target of assay [1] is PIK3CD (Human) (UniProt O00329). As to the kind of experiment: Enzyme Assay.
The next assay deals with PIK3CG (human) (UniProt P48736). As to the kind of experiment: Enzyme Assay.
Sequence of PIK3CG (human) (P48736 whole entry, looked up): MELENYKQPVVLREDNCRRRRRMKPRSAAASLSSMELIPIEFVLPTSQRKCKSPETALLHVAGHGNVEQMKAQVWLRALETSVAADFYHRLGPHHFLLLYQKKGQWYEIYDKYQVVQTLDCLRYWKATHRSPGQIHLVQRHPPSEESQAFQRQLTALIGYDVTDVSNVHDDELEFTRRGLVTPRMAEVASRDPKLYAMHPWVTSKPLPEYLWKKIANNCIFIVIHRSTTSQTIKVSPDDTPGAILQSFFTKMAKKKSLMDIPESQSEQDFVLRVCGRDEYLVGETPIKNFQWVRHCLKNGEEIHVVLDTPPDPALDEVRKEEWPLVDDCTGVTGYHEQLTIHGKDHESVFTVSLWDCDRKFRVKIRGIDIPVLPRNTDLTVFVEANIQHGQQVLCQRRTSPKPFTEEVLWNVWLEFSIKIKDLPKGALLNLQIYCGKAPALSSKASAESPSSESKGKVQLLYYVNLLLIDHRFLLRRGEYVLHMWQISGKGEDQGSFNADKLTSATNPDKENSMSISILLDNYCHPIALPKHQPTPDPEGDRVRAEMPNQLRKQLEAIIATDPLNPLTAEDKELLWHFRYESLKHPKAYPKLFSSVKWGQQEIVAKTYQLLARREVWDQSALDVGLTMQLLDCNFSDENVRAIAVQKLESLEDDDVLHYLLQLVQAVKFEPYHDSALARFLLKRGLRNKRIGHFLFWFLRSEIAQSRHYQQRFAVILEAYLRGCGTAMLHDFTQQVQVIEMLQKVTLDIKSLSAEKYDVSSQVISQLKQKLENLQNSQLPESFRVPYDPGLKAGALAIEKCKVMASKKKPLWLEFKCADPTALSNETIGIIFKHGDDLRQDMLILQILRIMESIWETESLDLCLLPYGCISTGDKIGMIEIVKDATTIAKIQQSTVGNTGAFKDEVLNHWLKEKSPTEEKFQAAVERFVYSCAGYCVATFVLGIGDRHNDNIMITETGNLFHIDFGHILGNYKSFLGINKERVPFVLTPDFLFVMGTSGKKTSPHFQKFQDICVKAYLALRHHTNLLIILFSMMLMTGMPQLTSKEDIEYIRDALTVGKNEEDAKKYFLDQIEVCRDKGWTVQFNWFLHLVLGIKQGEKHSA
Assay [2] addresses PIK3CD (Human) (UniProt O00329). As to the kind of experiment: Cell-Based Assay. To be noted: raji.

Sequence of PIK3CD (Human) (O00329 whole entry, looked up): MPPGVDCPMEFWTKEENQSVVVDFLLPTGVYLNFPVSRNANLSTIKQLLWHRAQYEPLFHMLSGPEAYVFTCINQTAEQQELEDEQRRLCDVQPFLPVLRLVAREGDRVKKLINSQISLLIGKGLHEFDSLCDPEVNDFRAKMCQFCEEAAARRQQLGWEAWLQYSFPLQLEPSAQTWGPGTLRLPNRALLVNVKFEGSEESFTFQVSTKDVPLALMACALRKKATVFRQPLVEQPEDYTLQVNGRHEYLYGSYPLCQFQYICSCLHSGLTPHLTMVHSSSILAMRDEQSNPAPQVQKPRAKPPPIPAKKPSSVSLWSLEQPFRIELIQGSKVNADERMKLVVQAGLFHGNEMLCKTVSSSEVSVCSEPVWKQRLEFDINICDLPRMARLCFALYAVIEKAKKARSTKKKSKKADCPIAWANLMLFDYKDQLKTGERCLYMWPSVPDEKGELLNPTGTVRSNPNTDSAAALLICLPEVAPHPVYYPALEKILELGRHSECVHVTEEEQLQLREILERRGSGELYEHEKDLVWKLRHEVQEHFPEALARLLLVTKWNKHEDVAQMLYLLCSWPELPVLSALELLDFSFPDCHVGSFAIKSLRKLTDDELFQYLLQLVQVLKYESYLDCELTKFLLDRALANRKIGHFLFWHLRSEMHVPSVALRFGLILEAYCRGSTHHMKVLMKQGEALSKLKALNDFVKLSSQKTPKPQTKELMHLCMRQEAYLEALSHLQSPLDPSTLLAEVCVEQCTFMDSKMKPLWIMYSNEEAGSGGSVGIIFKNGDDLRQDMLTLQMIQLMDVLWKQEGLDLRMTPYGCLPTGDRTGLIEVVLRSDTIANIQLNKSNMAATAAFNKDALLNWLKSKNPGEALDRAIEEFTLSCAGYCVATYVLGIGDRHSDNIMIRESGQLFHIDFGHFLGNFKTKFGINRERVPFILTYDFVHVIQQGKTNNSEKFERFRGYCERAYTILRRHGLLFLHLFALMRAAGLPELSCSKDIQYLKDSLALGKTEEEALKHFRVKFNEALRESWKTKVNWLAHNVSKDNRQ
Sequence of PIK3CB (Human) (P42338 whole entry, looked up): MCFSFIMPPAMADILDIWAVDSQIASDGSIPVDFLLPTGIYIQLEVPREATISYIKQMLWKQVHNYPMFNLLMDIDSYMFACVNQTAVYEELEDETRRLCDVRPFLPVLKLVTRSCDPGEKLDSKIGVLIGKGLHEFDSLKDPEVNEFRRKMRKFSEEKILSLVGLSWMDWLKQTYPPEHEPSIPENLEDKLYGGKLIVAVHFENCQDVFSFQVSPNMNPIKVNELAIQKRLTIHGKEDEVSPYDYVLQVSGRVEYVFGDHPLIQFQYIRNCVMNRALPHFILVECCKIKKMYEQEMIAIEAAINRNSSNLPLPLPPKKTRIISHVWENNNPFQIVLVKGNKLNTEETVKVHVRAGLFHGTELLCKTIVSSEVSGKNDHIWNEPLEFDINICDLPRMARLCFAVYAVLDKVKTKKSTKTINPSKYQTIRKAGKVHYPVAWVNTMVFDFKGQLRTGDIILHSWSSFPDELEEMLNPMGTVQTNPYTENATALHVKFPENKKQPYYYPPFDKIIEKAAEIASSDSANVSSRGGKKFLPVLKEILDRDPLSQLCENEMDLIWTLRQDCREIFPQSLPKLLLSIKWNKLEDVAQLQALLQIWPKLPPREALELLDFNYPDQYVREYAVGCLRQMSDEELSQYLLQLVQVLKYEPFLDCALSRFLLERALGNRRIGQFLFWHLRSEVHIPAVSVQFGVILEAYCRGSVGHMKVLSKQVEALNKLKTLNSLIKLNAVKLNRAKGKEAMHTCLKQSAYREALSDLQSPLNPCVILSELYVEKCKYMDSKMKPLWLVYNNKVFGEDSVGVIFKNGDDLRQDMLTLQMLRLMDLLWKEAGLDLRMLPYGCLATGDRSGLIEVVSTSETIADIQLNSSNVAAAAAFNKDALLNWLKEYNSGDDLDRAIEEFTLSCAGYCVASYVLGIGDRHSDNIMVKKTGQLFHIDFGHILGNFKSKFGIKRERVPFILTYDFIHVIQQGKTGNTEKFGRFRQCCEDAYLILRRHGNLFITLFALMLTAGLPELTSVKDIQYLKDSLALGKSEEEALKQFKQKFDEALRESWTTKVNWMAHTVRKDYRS
Sequence of PIK3CA (human) (P42336 whole entry, looked up): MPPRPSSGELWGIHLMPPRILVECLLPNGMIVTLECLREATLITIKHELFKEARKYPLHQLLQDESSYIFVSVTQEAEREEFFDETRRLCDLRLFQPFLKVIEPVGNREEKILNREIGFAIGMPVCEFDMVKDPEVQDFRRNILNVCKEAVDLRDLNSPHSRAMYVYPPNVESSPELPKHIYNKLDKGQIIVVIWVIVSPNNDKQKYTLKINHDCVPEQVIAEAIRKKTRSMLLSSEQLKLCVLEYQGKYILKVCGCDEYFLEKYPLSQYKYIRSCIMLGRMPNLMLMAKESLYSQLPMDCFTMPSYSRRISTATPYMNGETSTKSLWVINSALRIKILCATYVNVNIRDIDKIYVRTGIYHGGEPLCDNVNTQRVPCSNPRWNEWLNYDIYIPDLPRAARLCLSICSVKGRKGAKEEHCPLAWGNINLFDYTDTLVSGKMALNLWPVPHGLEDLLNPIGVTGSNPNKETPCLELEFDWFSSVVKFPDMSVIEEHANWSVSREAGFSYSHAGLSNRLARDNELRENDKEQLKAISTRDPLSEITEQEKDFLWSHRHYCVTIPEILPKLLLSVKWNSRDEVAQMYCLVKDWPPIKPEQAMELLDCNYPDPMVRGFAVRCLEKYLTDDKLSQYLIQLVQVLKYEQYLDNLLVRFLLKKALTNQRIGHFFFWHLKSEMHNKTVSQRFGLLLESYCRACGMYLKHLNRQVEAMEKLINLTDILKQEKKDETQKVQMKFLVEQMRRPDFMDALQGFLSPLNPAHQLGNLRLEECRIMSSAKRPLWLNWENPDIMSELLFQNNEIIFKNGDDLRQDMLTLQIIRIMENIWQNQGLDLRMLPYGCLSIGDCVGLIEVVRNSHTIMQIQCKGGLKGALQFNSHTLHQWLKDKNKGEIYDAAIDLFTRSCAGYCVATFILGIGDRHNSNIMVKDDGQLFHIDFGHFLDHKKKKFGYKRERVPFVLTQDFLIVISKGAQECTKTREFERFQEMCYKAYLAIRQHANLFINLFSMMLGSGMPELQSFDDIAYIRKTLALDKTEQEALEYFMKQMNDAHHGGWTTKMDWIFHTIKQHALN

As a reminder, the IC50 is the concentration that gives 50% inhibition. Consider `C[C@H](NC(=O)c1nc(C#N)cnc1N)c1cc2cccc(Cl)c2c(=O)n1-c1ccccc1`, for which the IC50 against PIK3CA (human) is no less than 10000 nM; against PIK3CB (Human) it was 100 to 1000 nM; at PIK3CD (Human) [1], 100 to 1000 nM; against PIK3CG (human), 100 to 1000 nM; against PIK3CD (Human) [2], less than 100 nM.
In the case of `C#Cc1cccc2cc([C@H](C)NC(=O)c3c(N)nn4cccnc34)n(-c3ccccc3)c(=O)c12`, the IC50 against PIK3CA (human) is 100 to 1000 nM; against PIK3CB (Human) it was 100 to 1000 nM; at PIK3CD (Human) [1] it was 100 to 1000 nM; on PIK3CG (human), less than 100 nM; against PIK3CD (Human) [2], less than 100 nM.
Turning to `C[C@H](NC(=O)c1nc(-c2cccc(S(C)(=O)=O)c2)c(N)nc1N)c1cc2cccc(Cl)c2c(=O)n1-c1ccccc1`, the IC50 against PIK3CA (human) is less than 100 nM; against PIK3CB (Human), less than 100 nM; on PIK3CD (Human) [1], 100 to 1000 nM; at PIK3CG (human), less than 100 nM; on PIK3CD (Human) [2], less than 100 nM.
As for `C[C@H](NC(=O)c1c(N)nn2cccnc12)c1cc2cccc(Cl)c2c(=O)n1CCN(C)S(C)(=O)=O`, the IC50 against PIK3CA (human) is 100 to 1000 nM; at PIK3CB (Human) it was 100 to 1000 nM; on PIK3CD (Human) [1], 100 to 1000 nM; against PIK3CG (human), less than 100 nM; against PIK3CD (Human) [2] it was less than 100 nM.
For `C[C@H](NC(=O)c1nc(-c2cncc(NS(C)(=O)=O)c2)cnc1N)c1cc2cccc(Cl)c2c(=O)n1-c1ccccc1`, the 50% inhibitory concentration (IC50) at PIK3CA (human) was 100 to 1000 nM; on PIK3CB (Human) it was less than 100 nM; on PIK3CD (Human) [1] it was 100 to 1000 nM; on PIK3CG (human) it was less than 100 nM; against PIK3CD (Human) [2], 100 to 1000 nM.
Turning to `C[C@H](NC(=O)c1c(N)nn2cccnc12)c1cc2cccc(Cl)c2c(=O)n1C1CC1`, the IC50 against PIK3CA (human) is 100 to 1000 nM; at PIK3CB (Human) it was less than 100 nM; against PIK3CD (Human) [1], 100 to 1000 nM; against PIK3CG (human), 100 to 1000 nM; on PIK3CD (Human) [2], less than 100 nM.
On to `C[C@H](NC(=O)c1nccnc1N)c1cc2cccc(Cl)c2c(=O)n1-c1ccc(F)cc1`, for which the IC50 was no less than 10000 nM on PIK3CA (human); 100 to 1000 nM at PIK3CB (Human); 100 to 1000 nM against PIK3CD (Human) [1]; 100 to 1000 nM against PIK3CG (human); less than 100 nM at PIK3CD (Human) [2].
Consider `C[C@H](NC(=O)c1c(N)nn2cccnc12)c1cc2cccc(-c3ccc(=O)n(C)c3)c2c(=O)n1-c1ccccc1`, for which the 50% inhibitory concentration (IC50) was no less than 10000 nM against PIK3CA (human); no less than 10000 nM on PIK3CB (Human); 100 to 1000 nM against PIK3CD (Human) [1]; less than 100 nM against PIK3CG (human); less than 100 nM against PIK3CD (Human) [2].
